conditions: basic group

First: Cc1c[nH]c(C)c1
Second: Cc1cc(C)[nH]n1
The pKa of the first is lower: 2.04 for the first, 4.32 for the second.

First: CNCCCC(=O)[O-]
Second: O=C([O-])CNCCc1nnn[n-]1
The pKa of the first is higher: 10.8 for the first, 9.23 for the second.

Compared with `CCN(CC)CC(=O)Nc1ccccc1C`, `CCN(CC)c1ccc(C)cc1` is lower in pKa: 7.95 for the first, 7.18 for the second.

First: C=C(C)C(=O)OCCN(C)CCCC
Second: CCC(O)CN(CC)CC(O)CC (stereo not given)
The pKa of the first is lower: 8.27 for the first, 9.2 for the second.

Going from `CN(C)c1ncccn1` to `O=C(O)c1ncccn1`, the pKa falls from 3.96 to -1.13.

Compared with `COc1ccc2[nH]c3c(C)nccc3c2c1`, `COc1ccc(OC)c(N)c1` is lower in pKa: 7.09 for the first, 3.72 for the second.

Compared with `Cc1nc2[nH]c(=O)[nH]c(=O)c2[nH]1`, `CC1=CC(C)=N/C1=C/c1[nH]c(C)cc1C` is higher in pKa: 3.1 for the first, 8.4 for the second.

Going from `CC1=Nc2ccc([N+](=O)[O-])cc2[NH+]=C(C)C1` to `C[NH+](C)CCCNc1ccnc2cc([N+](=O)[O-])ccc12`, the pKa rises from 2.2 to 6.77.

First: [S-]c1cnc2cncnc2n1
Second: c1ccc(-c2nc3ncncc3[nH]2)cc1
The pKa of the first is higher: 5.5 for the first, 2.68 for the second.

Going from `N#CCCNc1ccccc1` to `c1ccc(C2CCCN2)cc1` (stereo not given), the pKa rises from 4.5 to 9.6.

Going from `Cc1ccc(C)c(C(=N)c2ccccc2)c1` to `Cc1ccc([N+](=O)[O-])cc1/C(=N/CCC[NH+](C)C)c1ccccc1`, the pKa falls from 6.79 to 3.14.

Going from `CN(C)c1cccc2ccccc12` to `CC(C(O)c1ccccc1)N(C)C` (stereo not given), the pKa rises from 4.83 to 9.3.

Compared with `CCC(=O)C(CCN1CCCCC1)(c1ccccc1)c1ccccc1`, `CCC(=O)C(CC(C)N1CCCCC1)(c1ccccc1)c1ccccc1` (stereo not given) is lower in pKa: 8.86 for the first, 8.58 for the second.

Compared with `CC1CCNCC1`, `CC1CCCC(C(=O)[O-])N1` (stereo not given) is lower in pKa: 10.9 for the first, 10.4 for the second.

Compared with `C[C@H](N)[C@H](O)c1ccc(O)cc1`, `Cc1ccc2cccc(O)c2n1` is lower in pKa: 8.69 for the first, 5.63 for the second.

Going from `CN(C)CCCCCCCCNC(=O)/C=N/[O-]` to `CCCCNCC[NH2+]CCCC`, the pKa falls from 10.5 to 7.46.

Going from `CCNC(C)C` to `CCN(C)C`, the pKa falls from 11 to 10.1.

Compared with `CC(C)N(C(C)C)C(C)C`, `CCN(CC)CCCNS(=O)(=O)c1ccc(OC)c(OC)c1OC` is lower in pKa: 11.9 for the first, 9.54 for the second.

First: Cc1cc(Br)c(N)c(Br)c1
Second: Cc1cc(-c2ccc([NH3+])c(C)c2)ccc1N
The pKa of the first is lower: 0.69 for the first, 3.38 for the second.

First: c1ccc2c(c1)CNCCC[NH2+]Cc1ccccc1OCCCO2
Second: Oc1ccccc1-c1ccccn1
The pKa of the first is higher: 7.89 for the first, 4.2 for the second.

Going from `CC1([NH3+])C[C@]1(C)N` (stereo not given in full) to `CC1CCCC(C)(C)N1` (stereo not given), the pKa rises from 5.94 to 11.3.

First: Oc1ccccc1CNC1CCCCC1
Second: NC[C@H]1CCCC[C@@H]1O
The pKa of the first is lower: 8.67 for the first, 10.2 for the second.

Going from `Cc1ccc(/N=C/N(C)C)cc1` to `Nc1ccc(Cl)cc1`, the pKa falls from 9.21 to 3.96.

First: C1CCN(CCN2CCCC2)C1
Second: C1CCN(CCC[NH+]2CCCC2)C1
The pKa of the first is higher: 9.47 for the first, 8.03 for the second.

Compared with `CC(C)(C)/C(N)=N/O`, `CCc1c(C)nnc(C)c1C` is lower in pKa: 5.8 for the first, 5.17 for the second.

First: CC1(C)CC(NCCO)CC(C)(C)[NH2+]1
Second: CN=C1C(C)(C)c2ccccc2C1(C)C
The pKa of the first is higher: 7.42 for the first, 7 for the second.

Going from `Nc1cnnc2ccccc12` to `c1ccc2ncncc2c1`, the pKa falls from 6.84 to 3.51.

First: Nc1nccc([O-])n1
Second: Nc1nc([S-])c2[nH]cnc2n1
The pKa of the first is higher: 9.42 for the first, 8.2 for the second.

`Cc1ccccc1/C(=N\CCC[NH+](C)C)c1ccccc1-c1ccccc1` and `c1ccc(-c2cc3cccnc3c3ncccc23)cc1` are within 0.2 log units of each other in pKa: 4.67 for the first, 4.72 for the second.

Compared with `C[C@H]1[C@@H](N)[C@@H](C)[C@@H](N)[C@@H](C)[C@H]1N`, `N[C@H]1C[C@@H]1[NH3+]` is lower in pKa: 7.83 for the first, 5.9 for the second.

Compared with `CCOC(=O)Cc1nc2ccccc2[nH]1`, `CCCn1cnc2ccccc21` is lower in pKa: 5.7 for the first, 5.46 for the second.

Compared with `CNC(=O)NC`, `CN[C@H]1C[C@H]1NC` is higher in pKa: 1.02 for the first, 8.73 for the second.

Compared with `N[C@@H]1CCCC[C@@H]1O`, `OCCC[C@H]1CC[C@@H]2CCCN12` is higher in pKa: 9.72 for the first, 11.2 for the second.

Going from `Cc1cnc2c(ccc3cc(C)cnc32)c1` to `Clc1ccnc2c1ccc1c(Cl)ccnc12`, the pKa falls from 5.23 to 3.03.

Compared with `COCCCN`, `NCCC[Se-]` is higher in pKa: 9.92 for the first, 11.3 for the second.

First: OCCCCNCl
Second: CCCCNCCNCCCC
The pKa of the first is lower: 1.49 for the first, 10.2 for the second.

First: Nc1cccc(Cl)c1
Second: NCCc1ccc(Br)cc1
The pKa of the first is lower: 3.59 for the first, 9.65 for the second.

Compared with `C[n+]1cccnc1[O-]`, `NC(=O)CCCc1cccnc1` is higher in pKa: 2.5 for the first, 5.33 for the second.

First: CN1C[C@H](C(=O)[O-])C[C@@]2(O)c3cccc4[nH]cc(c34)C[C@@H]12
Second: NCCC(=O)N[C@@H](Cc1c[nH]cn1)C(=O)[O-]
The pKa of the first is lower: 8.33 for the first, 9.61 for the second.

Compared with `CC1CC2CCN1CC2` (stereo not given), `CC1CCN(C(C)C=C(c2cccs2)c2cccs2)CC1` (stereo not given) is lower in pKa: 11.3 for the first, 8.2 for the second.

Going from `CCN(CC)CCNc1nc(C)cc(N)n1` to `Nc1ncc2ncn([C@H]3O[C@@H](CO)[C@H](O)[C@@H]3O)c2n1`, the pKa falls from 9.8 to 3.4.

Compared with `C1CCN(CCC[NH+]2CCCCC2)CC1`, `OC(CN1CCCC1)C[NH+]1CCCC1` is lower in pKa: 7.97 for the first, 7.75 for the second.

Compared with `O=[N+]([O-])c1ccc(-c2cnc(-c3ccccc3)o2)cc1`, `Nc1c2ccccc2nc2c1ccc1c([N+](=O)[O-])cccc12` is higher in pKa: 0.35 for the first, 7.1 for the second.

First: Cc1ccc2c(c1)ncn2[C@H]1O[C@@H](CO)[C@H](O)[C@@H](O)[C@@H]1O
Second: COc1ccc2c(c1)NCCN2
The pKa of the first is lower: 4.32 for the first, 5.26 for the second.

Going from `NCCC#CC#CCCC(=O)[O-]` to `C(COCCc1nnn[nH]1)OCCc1nnn[nH]1`, the pKa falls from 9.27 to 4.79.

— the pKa sets of Baltruschat and Czodrowski (2020)
